Data published in patent publication US10626081B2, “Farnesoid X receptor agonists and uses thereof” (Metacrine, Inc., priority 2015, dated 2020).

What was measured:
FXR [1] = molecular target: T1, FXR (Homo sapiens, UniProt Q96RI1); test: In Vitro FXR Assay (PGL3): luciferase reporter in transfected CV-1 cells; type: cell-based; settings: CV-1 cells transfected with hFXR, hRXR, PGL3-ECRE*6-luc; 18 h incubation; luminescence
T1 construct: expressed in transfected cells; host or cells: CV-1 cells
T1 sequence (Q96RI1 1-486): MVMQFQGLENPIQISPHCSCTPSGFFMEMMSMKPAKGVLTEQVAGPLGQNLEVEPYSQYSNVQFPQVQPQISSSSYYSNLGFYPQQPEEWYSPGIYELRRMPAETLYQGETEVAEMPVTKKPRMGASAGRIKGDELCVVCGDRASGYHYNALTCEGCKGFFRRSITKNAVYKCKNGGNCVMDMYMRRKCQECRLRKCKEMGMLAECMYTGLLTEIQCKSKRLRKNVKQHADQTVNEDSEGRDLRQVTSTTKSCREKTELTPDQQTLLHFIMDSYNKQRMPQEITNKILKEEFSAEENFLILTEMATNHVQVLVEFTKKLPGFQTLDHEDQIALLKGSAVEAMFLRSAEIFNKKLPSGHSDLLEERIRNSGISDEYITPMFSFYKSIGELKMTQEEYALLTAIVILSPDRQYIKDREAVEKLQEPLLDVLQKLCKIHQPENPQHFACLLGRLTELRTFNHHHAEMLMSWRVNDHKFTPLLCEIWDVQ
T1 sequence (P19793 1-462 partner): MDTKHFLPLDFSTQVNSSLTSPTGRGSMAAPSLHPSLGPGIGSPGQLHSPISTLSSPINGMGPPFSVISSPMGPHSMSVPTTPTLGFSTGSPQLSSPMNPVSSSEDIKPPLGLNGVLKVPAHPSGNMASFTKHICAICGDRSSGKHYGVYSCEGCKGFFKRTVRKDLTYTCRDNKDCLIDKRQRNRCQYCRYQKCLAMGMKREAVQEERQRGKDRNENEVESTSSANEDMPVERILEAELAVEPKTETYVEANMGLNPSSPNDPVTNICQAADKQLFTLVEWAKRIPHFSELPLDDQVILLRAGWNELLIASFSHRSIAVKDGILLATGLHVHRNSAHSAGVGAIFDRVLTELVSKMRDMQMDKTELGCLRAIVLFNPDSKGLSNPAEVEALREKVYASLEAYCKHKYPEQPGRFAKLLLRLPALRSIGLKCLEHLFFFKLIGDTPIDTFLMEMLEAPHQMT
Protocol: Example B-1: In Vitro FXR Assay (PGL3)
CV-1 cells were seeded at a density of 2,000,000 cells in a T175 flask with DMEM+10% charcoal double-stripped FBS and incubated at 37° C. in a 5% CO2 for 18 h (O/N).
After 18 h of incubation, the medium in the T175 flask was changed with fresh DMEM+10% charcoal super-stripped serum.
To prepare the transfection reaction mixture, the transfection reagent (X-tremeGENE HP from Roche, Cat #06 366 236 001) was added in to a 1.5 mL microcentrifuge tube labelled “A” at a ratio of 1:3 (DNA in transfection reagent in μL). OptiMEM medium (Life Technologies, Cat #31985-062) was added accordingly to provide a total volume of 1 mL. The transfection reaction mixture was then briefly vortexed and incubated at room temperature for 5 minutes.
In a separate 1.5 mL microcentrifuge tube labelled “B”, 100 μL OptiMEM and plasmids XPD90Gal pCMXhFXRfl, pCMXhRXRfl+PGL3-ECRE*6-luc+CMX-YFP in the ratio 2 μg:2 μg:18 μg:3 μg were added. This microcentrifuge tube “B” was then briefly vortexed and incubated at room temperature for 5 minutes.
The total volume in tube labelled “A” was then transferred in to tube labelled “B.” The mixture was then briefly vortexed and the transfection:DNA complex was then incubated for about 15-20 minutes at room temperature.
Following incubation, the transfection reagent/DNA mixture complex was then added to cells in the T175 flask and the cells were incubated at […] (O/N) at 37° C. in 5% CO2.
In a 96 well plate, a half logarithmic serial dilution was prepared. OptiMEM was used as the diluent. Using any of one of the compounds described herein, a compound stock solution of 10 mM was prepared. An initial 1:100 dilution was made into the first well for a final concentration of 100 μM. The final concentrations in the 96-well plate was prepared by using a multichannel pipette to transfer 5 μL of the diluted compound to 384-well plate in quadruplicate.
Cells in T175 flask were trypsinized and cells were resuspended in 40 mL phenol red free DMEM+10% charcoal super-stripped FBS. Typically, one T175 flask was sufficient to seed two 384 well plates. CV-1 cells were seeded at 45 μL cell suspension/well using a multi-channel pipet or a 384 multidrop dispenser. The cells were then incubated for 18 hrs, overnight.
After removing the plates from the incubator, the medium was flicked out of plate and 384 well plate was turned upside down onto paper towel. The remaining medium was gently tapped out. 15 μL lysis buffer was then added to each well using a multichannel pipet or a 384 well multi-drop dispenser. After incubation for 10 minutes at room temperature on shaker, 30 μL Luciferase buffer was added to each well. Luminescence counts were taken immediately using the Perkin Elmer Envision.
The ability of the compounds disclosed herein to […] FXR activity was quantified and the respective EC50 value was determined. Fex=fexaramine.

FXR [2] = molecular target: T1, FXR; test: In Vitro FXR Assay (TK): TK-ECRE-luc reporter in transfected CV-1 cells; type: cell-based; settings: CV-1 cells transfected with hFXR, hRXR, 18 h incubation, luminescence
Summary of the method: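 Luciferase read-out from lysed CV-1 cells exposed 18 h to DMSO-diluted compounds. Cells had been transfected overnight with expression plasmids for hFXR and hRXR plus TK-ECRE-luc reporter and pCMX-YFP, grown in charcoal-stripped serum at 37 °C, 5% CO2.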

Cmpd/Fex (ratio of the EC50 for the test compound relative to the EC50 of the Fexaramine control) (FXR [1])	EC50 (FXR [2]) [nM]	Compound
++ (‘++’ means Cmpd/Fex > 10 & < 100)	1000 to 10000	CCCC(=O)N(Cc1ccc(-c2ccc(N(C)C)cc2)cc1)c1cccc(/C=C/C(=O)OC)c1 [compound 2, (E)-Methyl 3-(3-(N-((4′-(dimethylamino)-[1,1′-biphenyl]-4-yl)methyl)butyramido)phenyl)acrylate]
++ (‘++’ means Cmpd/Fex > 10 & < 100)	1000 to 10000	CCOC(=O)N(Cc1ccc(-c2ccc(N(C)C)cc2)cc1)c1cccc(/C=C/C(=O)OC)c1 [compound 3, (E)-Methyl 3-(3-(((4′-(dimethylamino)-[1,1′-biphenyl]-4-yl)methyl)(ethoxycarbonyl)amino)phenyl)acrylate]
+++ (‘+++’ means Cmpd/Fex < 10)	1000 to 10000	COC(=O)/C=C/c1cccc(N(Cc2ccc(-c3ccc(N(C)C)cc3)cc2)C(=O)c2ccc(C#N)cc2)c1 [compound 4, (E)-Methyl 3-(3-(4-cyano-N-((4′-(dimethylamino)-[1,1′-biphenyl]-4-yl)methyl)benzamido)phenyl)acrylate]
+++ (‘+++’ means Cmpd/Fex < 10)	≤ 1000	COC(=O)/C=C/c1cccc(N(Cc2ccc(-c3ccc(N(C)C)cc3)cc2)C(=O)C2CCOCC2)c1 [compound 5, (E)-Methyl 3-(3-(N-((4′-(dimethylamino)-[1,1′-biphenyl]-4-yl)methyl)tetrahydro-2H-pyran-4-carboxamido)phenyl)acrylate]
++ (‘++’ means Cmpd/Fex > 10 & < 100)	1000 to 10000	COC(=O)/C=C/c1cccc(N(Cc2ccc(-c3ccc(N(C)C)cc3)cc2)C(=O)C2COC2)c1 [compound 6, (E)-Methyl 3-(3-(N-((4′-(dimethylamino)-[1,1′-biphenyl]-4-yl)methyl)oxetane-3-carboxamido)phenyl)acrylate]
+++ (‘+++’ means Cmpd/Fex < 10)	≤ 1000	COC(=O)/C=C/c1cccc(N(Cc2ccc(-c3ccc(N(C)C)cc3)cc2)C(=O)CC(C)(C)C)c1 [compound 7, (E)-Methyl 3-(3-(N-((4′-(dimethylamino)-[1,1′-biphenyl]-4-yl)methyl)-3,3-dimethylbutanamido)phenyl)acrylate]
+++ (‘+++’ means Cmpd/Fex < 10)	≤ 1000	COC(=O)/C=C/c1cccc(N(Cc2ccc(-c3ccc(N(C)C)cc3)cc2)C(=O)[C@H]2CC[C@@H](OC)CC2)c1 [compound 8, (E)-Methyl 3-(3-((1r,4r)-N-((4′-(dimethylamino)-[1,1′-biphenyl]-4-yl)methyl)-4-methoxycyclohexanecarboxamido)phenyl)acrylate]
+++ (‘+++’ means Cmpd/Fex < 10)	≤ 1000	COC(=O)/C=C/c1cccc(N(Cc2ccc(-c3ccc(N(C)C)cc3)cc2)C(=O)[C@H]2CC[C@H](OC)CC2)c1 [compound 9, (E)-Methyl 3-(3-((1s,4s)-N-((4′-(dimethylamino)-[1,1′-biphenyl]-4-yl)methyl)-4-methoxycyclohexanecarboxamido)phenyl)acrylate]
+++ (‘+++’ means Cmpd/Fex < 10)	1000 to 10000	COC(=O)/C=C/c1cccc(N(Cc2ccc(-c3ccc(N(C)C)cc3)cc2)C(=O)c2ccc(OC)cc2)c1 [compound 10, (E)-Methyl 3-(3-(N-((4′-(dimethylamino)-[1,1′-biphenyl]-4-yl)methyl)-4-methoxybenzamido)phenyl)acrylate]
+++ (‘+++’ means Cmpd/Fex < 10)	≤ 1000	COC(=O)/C=C/c1cccc(N(Cc2ccc(-c3ccc(N(C)C)cc3)cc2)C(=O)C2CCCCCC2)c1 [compound 11, (E)-Methyl 3-(3-(N-((4′-(dimethylamino)-[1,1′-biphenyl]-4-yl)methyl)cycloheptanecarboxamido)phenyl)acrylate]
+++ (‘+++’ means Cmpd/Fex < 10)	1000 to 10000	COC(=O)/C=C/c1cccc(N(Cc2ccc(-c3ccc(N(C)C)cc3)cc2)C(=O)C23CC4CC(CC(C4)C2)C3)c1 [compound 12, (E)-Methyl 3-(3-(-N-((4′-(dimethylamino)-[1,1′-biphenyl]-4-yl)methyl)adamantane-1-carboxamido)phenyl)acrylate]
+ (‘+’ means Cmpd/Fex > 100)	> 10000	COC(=O)/C=C/c1cccc(N(Cc2ccc(C3CCCCC3)cc2)C(=O)C2CCCCC2)c1 [compound 13, (E)-methyl 3-(3-(N-(4-cyclohexylbenzyl)cyclohexanecarboxamido)phenyl)acrylate]
+++ (‘+++’ means Cmpd/Fex < 10)	≤ 1000	COC(=O)/C=C/c1cccc(N(Cc2ccc(-c3ccc(N(C)C)cc3)cc2)C(=O)C2CCCC2)c1 [compound 14, (E)-Methyl 3-(3-(N-((4′-(dimethylamino)-[1,1′-biphenyl]-4-yl)methyl)cyclopentanecarboxamido)phenyl)acrylate]
+++ (‘+++’ means Cmpd/Fex < 10)	1000 to 10000	COC(=O)/C=C/c1cccc(N(Cc2ccc(-c3ccc(N(C)C)cc3)cc2)C(=O)C2CCC2)c1 [compound 15, (E)-Methyl 3-(3-(N-((4′-(dimethylamino)-[1,1′-biphenyl]-4-yl)methyl)cyclobutanecarboxamido)phenyl) acrylate]
++ (‘++’ means Cmpd/Fex > 10 & < 100)	1000 to 10000	COC(=O)/C=C/c1cccc(N(Cc2ccc(-c3ccc(N(C)C)cc3)cc2)C(=O)N2CCCCC2)c1 [compound 16]
+++ (‘+++’ means Cmpd/Fex < 10)	≤ 1000	COC(=O)/C=C/c1cccc(N(Cc2ccc(-c3ccc(N(C)C)cc3)cc2)C(=O)[C@H]2CC[C@@H](O)CC2)c1 [compound 18, cis-(E)-Methyl 3-(3-(N-((4′-(dimethylamino)-[1,1′-biphenyl]-4-yl)methyl)-4-hydroxycyclohexanecarboxamido)phenyl)acrylate]
